Here are results for four compounds from PMC3444674 (Bioorganic & medicinal chemistry, 2012).

Each structure is given as a SMILES string.

Holding throughout (format): biochemical
Assay [1] deals with T1, human DDAH-1 (Homo sapiens, UniProt O94760). Briefly: Time-dependent inactivation of human DDAH-1.
For assay [2], the target named is T2, P. aeruginosa isoform of DDAH (Pseudomonas aeruginosa, UniProt Q9I4E3).
T2 sequence (Q9I4E3 1-254): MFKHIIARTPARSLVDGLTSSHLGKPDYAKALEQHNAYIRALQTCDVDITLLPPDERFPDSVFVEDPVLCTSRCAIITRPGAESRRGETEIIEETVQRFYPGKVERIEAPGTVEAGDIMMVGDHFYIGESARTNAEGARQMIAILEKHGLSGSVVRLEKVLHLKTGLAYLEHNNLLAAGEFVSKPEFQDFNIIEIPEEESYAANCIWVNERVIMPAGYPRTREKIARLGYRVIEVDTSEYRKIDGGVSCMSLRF
Briefly: Inhibition of P. aeruginosa DDAH by reversible inhibitors. Particulars: at concentrations up to 1 mM.

Assay [3] addresses T1, human DDAH-1. Briefly: Reversibility upon dilution into excess substrate. Particulars: enzyme-inhibitor mixture diluted into excess substrate.
The target in assay [4] is T1, human DDAH-1. Briefly: Concentration-response and mode-of-inhibition assays for IC50 and Ki. Particulars: for Hill Coefficient: concentration-response plot, substrate 50 µM; for Mode of inhibition: varying substrate and inhibitor, large effect on KM, not on kcat.

T1 sequence (O94760 whole entry, canonical isoform): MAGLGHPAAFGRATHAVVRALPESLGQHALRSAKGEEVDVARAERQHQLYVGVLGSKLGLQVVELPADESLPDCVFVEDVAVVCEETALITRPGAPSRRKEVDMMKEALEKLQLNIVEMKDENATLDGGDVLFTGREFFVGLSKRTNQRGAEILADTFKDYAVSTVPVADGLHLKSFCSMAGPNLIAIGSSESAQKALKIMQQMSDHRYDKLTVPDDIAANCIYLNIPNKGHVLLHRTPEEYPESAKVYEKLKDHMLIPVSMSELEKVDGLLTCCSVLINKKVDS

The kinact/KI is the second-order rate constant of inactivation. For `Cc1cc(Br)ccn1` [Compound 10, 2-methyl-4-bromopyridine], the kinact/KI at human DDAH-1 [1] is around 0.05 M⁻¹ s⁻¹.
For the compound `OCc1cc(Cl)ccn1` [Compound 11, 2-hydroxymethyl-4-chloropyridine], the inactivation efficiency (kinact/KI) on human DDAH-1 [1] was around 0.04 M⁻¹ s⁻¹.
Consider `CCc1nc2ccccc2[nH]1` [Compound 12, 2-ethyl-benzimidazole], for which the “Inhibition of P. aeruginosa DDAH” value in assay [2] is listed as “did not show any inhibition”. Further, the Reversibility of inhibition result on human DDAH-1 [3] is recorded as “full activity was rapidly regained”. For the same compound, at human DDAH-1 [4], the “Hill Coefficient” value came to 1.5 ± 0.2 and the Mode of inhibition result is “competitive”.
On to `NCCSc1nc2ccccc2o1` [Compound 13, 2-(1,3-benzoxazol-2-ylthio)ethanamine], for which, on human DDAH-1 [3], the Reversibility of inhibition result is “full activity was rapidly regained”. Further, the “Ligand Efficiency” value on human DDAH-1 [4] (calculated from experimental Ki values) is reported as 0.3 kcal / mol / heavy (non-hydrogen) atom. In addition, on human DDAH-1 [4], the “Hill Coefficient” value came out at 1.0 ± 0.3 and the Mode of inhibition result is reported as “competitive”.
